This note sets out measurements from patent publication US7598418B2, “Amide derivatives” (Institute of Medicinal Molecular Design, Inc., priority 2002, dated 2009).

This test concerns Jurkat cells. As to the kind of experiment: Jurkat cell proliferation, MTS method: compound alone or combined with bleomycin. In kind it is cell-based. To be noted: compound plus bleomycin 5 μg/ml or 10 μg/ml, 36 hours, survival rate vs DMSO control. More on the design: key: ┌++┘ indicates observation of remarkable enhancement; ┌+┘ indicates moderated enhancement. Here is the method: By using aforementioned synthetic compounds, effects on proliferation of Jurkat cells by sole administration and inhibitory effects on cell proliferation by administration in combination with bleomycin were examined. Materials and methods are as follows. Jurkat cells obtained from Dainippon Pharmaceutical Co. Ltd. were inoculated at about 10,000 cells per well in a 96 well culture plate, and incubated in 10% bovine fetal serum (Irvine Scientific) supplemented with RPMI1640 (ICN) medium in 5% CO2 incubator at 37° C. […] 36 hours after the incubation, the number of living cells was counted by the MTS method.
More specifically, 20 μl of CellTiter96™ AQueous One Solution (Promega) was added per one well, and after the cells were incubated for additional one hour, an absorbance at 490 nm was measured by using a microplate reader. The same culture added with DMSO as a solvent at final concentration of 0.25% was used as a control. The number of cells in the control was considered as 100% survival rate, and for each compound, survival rates by sole administration or a combined administration were calculated. […] In the table, ┌++┘ indicates observation of remarkable enhancement, ┌+┘ indicates moderated enhancement.
Consider `O=S(=O)(NCCc1ccccc1)c1ccc2c(O)cccc2c1` [Compound 4-13, N-(2-Phenethyl)-5-hydroxynaphthalene-2-sulfonamide], for which the “Activity (enhancement of inhibitory effect on cell proliferation in combination with bleomycin)” value is listed as “+”.
As for `CC(C)(C)c1ccc(CNS(=O)(=O)c2ccc3c(N)cccc3c2)cc1` [Compound 6-2, 5-Amino-N-[4-(tert-butyl)benzyl]naphthalene-2-sulfonamide], the entry is “+”; as for `COc1cccc(CNS(=O)(=O)c2ccc3c(N)cccc3c2)c1OC` [Compound 6-3, 5-Amino-N-(2,3-dimethoxybenzyl)naphthalene-2-sulfonamide], “+”.
For `CC(C)(C)c1ccc(CNS(=O)(=O)c2cccc3cc(N)ccc23)cc1` [Compound 8-2, 6-Amino-N-[4-(tert-butyl)benzyl]naphthalene-1-sulfonamide] the value was “+”; for `Nc1cccc2c(C(=O)NCc3ccccc3)cccc12` [Compound 11-1, 5-Amino-N-benzylnaphthalene-1-carboxamide], “+”.
